Key:
Type in all cases: functional
OVCAR-5 = test: Growth inhibition of human OVCAR5 cells after 48 hrs by sulforhodamine B assay; settings: OVCAR-5, 48 h
NCI-H522 = test: Growth inhibition of human NCI-H522 cells after 48 hrs by sulforhodamine B assay; settings: NCI-H522, 48 h
HCT-15 = test: Growth inhibition of human HCT15 cells after 48 hrs by sulforhodamine B assay; settings: HCT-15, 48 h
[1] = Growth inhibition of human HCC2998 cells after 48 hrs by sulforhodamine B assay; settings: HCC 2998, 48 h
[2] = Growth inhibition of human RXF631L cells after 48 hrs by sulforhodamine B assay; settings: RXF 631, 48 h
NCI-H23 = test: Growth inhibition of human NCI-H23 cells after 48 hrs by sulforhodamine B assay; settings: NCI-H23, 48 h
HCT-116 = test: Growth inhibition of human HCT116 cells after 48 hrs by sulforhodamine B assay; settings: HCT-116, 48 h
[3] = Growth inhibition of human HBC4 cells after 48 hrs by sulforhodamine B assay; settings: HBC4, 48 h
MCF7 = test: Growth inhibition of human MCF7 cells after 48 hrs by sulforhodamine B assay; settings: MCF7, 48 h
SNB-75 = test: Growth inhibition of human SNB75 cells after 48 hrs by sulforhodamine B assay; settings: SNB-75, 48 h
OVCAR-4 = test: Growth inhibition of human OVCAR4 cells after 48 hrs by sulforhodamine B assay; settings: OVCAR-4, 48 h
LOX IMVI = test: Growth inhibition of human LOXIMVI cells after 48 hrs by sulforhodamine B assay
MKN-74 = test: Growth inhibition of human MKN74 cells after 48 hrs by sulforhodamine B assay; settings: MKN-74, 48 h
HT-29 = test: Growth inhibition of human HT-29 cells after 48 hrs by sulforhodamine B assay; settings: HT-29, 48 h
MDA-MB-231 = test: Growth inhibition of human MDA-MB-231 cells after 48 hrs by sulforhodamine B assay; settings: MDA-MB-231, 48 h
MKN-45 = test: Growth inhibition of human MKN45 cells after 48 hrs by sulforhodamine B assay; settings: MKN-45, 48 h
PC-3 = test: Growth inhibition of human PC3 cells after 48 hrs by sulforhodamine B assay; settings: PC-3, 48 h
[4] = Growth inhibition of human MKN1 cells after 48 hrs by sulforhodamine B assay; settings: MKN-1, 48 h
SF-268 = test: Growth inhibition of human SF268 cells after 48 hrs by sulforhodamine B assay; settings: SF-268, 48 h
[5] = Growth inhibition of human BSY1 cells after 48 hrs by sulforhodamine B assay; settings: BSY-1, 48 h
MKN-7 = test: Growth inhibition of human MKN7 cells after 48 hrs by sulforhodamine B assay; settings: MKN-7, 48 h
OVCAR-8 = test: Growth inhibition of human OVCAR8 cells after 48 hrs by sulforhodamine B assay; settings: OVCAR-8, 48 h
U-251 = test: Growth inhibition of human U251 cells after 48 hrs by sulforhodamine B assay; settings: U-251, 48 h
DMS-114 = test: Growth inhibition of human DMS114 cells after 48 hrs by sulforhodamine B assay; settings: DMS-114, 48 h
ACHN = test: Growth inhibition of human ACHN cells after 48 hrs by sulforhodamine B assay
OVCAR-3 = test: Growth inhibition of human OVCAR3 cells after 48 hrs by sulforhodamine B assay; settings: OVCAR-3, 48 h
KM12 = test: Growth inhibition of human KM12 cells after 48 hrs by sulforhodamine B assay; settings: KM12, 48 h
SF-539 = test: Growth inhibition of human SF539 cells after 48 hrs by sulforhodamine B assay; settings: SF-539, 48 h
SNB-78 = test: Growth inhibition of human SNB78 cells after 48 hrs by sulforhodamine B assay; settings: SNB-78, 48 h
NCI-H226 = test: Growth inhibition of human NCI-H226 cells after 48 hrs by sulforhodamine B assay; settings: NCI-H226, 48 h
DU-145 = test: Growth inhibition of human DU145 cells after 48 hrs by sulforhodamine B assay; settings: DU-145, 48 h
SK-OV-3 = test: Growth inhibition of human SKOV3 cells after 48 hrs by sulforhodamine B assay; settings: SK-OV-3, 48 h
DMS-273 = test: Growth inhibition of human DMS273 cells after 48 hrs by sulforhodamine B assay; settings: DMS-273, 48 h
NCI-H460 = test: Growth inhibition of human NCI-H460 cells after 48 hrs by sulforhodamine B assay; settings: NCI-H460, 48 h
SF-295 = test: Growth inhibition of human SF295 cells after 48 hrs by sulforhodamine B assay; settings: SF-295, 48 h
A549 = test: Growth inhibition of human A549 cells after 48 hrs by sulforhodamine B assay; settings: A549, 48 h
St-4 = test: Growth inhibition of human St-4 cells after 48 hrs by sulforhodamine B assay; settings: St-4, 48 h
MKN-28 = test: Growth inhibition of human MKN28 cells after 48 hrs by sulforhodamine B assay; settings: MKN-28, 48 h
[6] = Growth inhibition of human HBC5 cells after 48 hrs by sulforhodamine B assay; settings: HBC5, 48 h

| SMILES | GI50 (OVCAR-5) [µM] | GI50 (HCT-15) [µM] | GI50 [1] [µM] | GI50 [2] [µM] | GI50 (HCT-116) [µM] | GI50 [3] [µM] | GI50 (SNB-75) [µM] | GI50 (OVCAR-4) [µM] | GI50 (LOX IMVI) [µM] | GI50 (MKN-74) [µM] | GI50 (HT-29) [µM] | GI50 (MDA-MB-231) [µM] | GI50 (MKN-45) [µM] | GI50 (PC-3) [µM] | GI50 [4] [µM] | GI50 (SF-268) [µM] | GI50 [5] [µM] | GI50 (OVCAR-8) [µM] | GI50 (U-251) [µM] | GI50 (DMS-114) [nM] | also measured |
| --- | --- | --- | --- | --- | --- | --- | --- | --- | --- | --- | --- | --- | --- | --- | --- | --- | --- | --- | --- | --- | --- |
| CCCCCCCCCCCC[C@@H](O)[C@H]1CC[C@H]([C@H](O)CCCCCCCCCCC(=O)Nc2ccnn2C)O1 | > 100 | > 100 | > 100 | > 100 | 64.6 | > 100 | > 100 | > 100 | > 100 | > 100 | > 100 | > 100 | > 100 | > 100 | > 100 | > 100 | 95.5 | > 100 | > 100 | 3310 | GI50 (NCI-H522): 28.8 µM; GI50 (NCI-H23): 26.9 µM; GI50 (MCF7): > 100 µM; GI50 (MKN-7): 20.9 µM; GI50 (ACHN): > 100 µM; GI50 (OVCAR-3): > 100 µM; GI50 (KM12): > 100 µM; GI50 (SF-539): > 100 µM; GI50 (SNB-78): > 100 µM; GI50 (NCI-H226): 75.9 µM; GI50 (DU-145): > 100 µM; GI50 (SK-OV-3): > 100 µM; GI50 (DMS-273): > 100 µM; GI50 (NCI-H460): > 100 µM; GI50 (SF-295): 57.5 µM; GI50 (A549): > 100 µM; GI50 (St-4): > 100 µM; GI50 (MKN-28): 18.2 µM; GI50 [6]: > 100 µM |
| CCCCCCCCCCCC[C@@H](O)[C@H]1CC[C@H]([C@H](O)CCCCCCCCCCOC(=O)c2ccnn2C)O1 | > 100 | 47.9 | 46.8 | > 100 | 3.98 | 51.3 | > 100 | > 100 | 12.9 | 30.9 | 32.4 | > 100 | > 100 | 28.2 | 43.7 | > 100 | 0.813 | > 100 | 69.2 | 407 | GI50 (NCI-H522): 6.31 µM; GI50 (NCI-H23): 11 µM; GI50 (MCF7): 22.9 µM; GI50 (MKN-7): 0.617 µM; GI50 (ACHN): 57.5 µM; GI50 (OVCAR-3): > 100 µM; GI50 (KM12): 20 µM; GI50 (SF-539): > 100 µM; GI50 (SNB-78): 44.7 µM; GI50 (NCI-H226): 28.2 µM; GI50 (DU-145): > 100 µM; GI50 (SK-OV-3): > 100 µM; GI50 (DMS-273): 38 µM; GI50 (NCI-H460): 34.7 µM; GI50 (SF-295): 30.9 µM; GI50 (A549): 56.2 µM; GI50 (St-4): 30.2 µM; GI50 (MKN-28): 2.51 µM; GI50 [6]: 25.7 µM |
| CCCCCCCCCCCC[C@@H](O)[C@H]1CC[C@H]([C@H](O)CCCCCCCCCCCCc2ccnn2C)O1 | > 100 | > 100 | 79.4 | > 100 | 9.12 | > 100 | > 100 | 37.2 | > 100 | 22.9 | 75.9 | 32.4 | > 100 | > 100 | > 100 | > 100 | 32.4 | > 100 | > 100 | 550 | GI50 (NCI-H522): 3.8 µM; GI50 (NCI-H23): 0.912 µM; GI50 (MCF7): 26.9 µM; GI50 (MKN-7): 6.17 µM; GI50 (ACHN): 87.1 µM; GI50 (OVCAR-3): > 100 µM; GI50 (KM12): 70.8 µM; GI50 (SF-539): 37.2 µM; GI50 (SNB-78): > 100 µM; GI50 (NCI-H226): 52.5 µM; GI50 (DU-145): > 100 µM; GI50 (SK-OV-3): 77.6 µM; GI50 (DMS-273): 49 µM; GI50 (NCI-H460): > 100 µM; GI50 (SF-295): 24 µM; GI50 (A549): 30.9 µM; GI50 (St-4): 64.6 µM; GI50 (MKN-28): 4.37 µM; GI50 [6]: 69.2 µM |
| CCCCCCCCCCCC[C@@H](O)[C@H]1CC[C@H]([C@H](O)CCCCCCCCCCCCC2=C[C@H](C)OC2=O)O1 [REL-SOLAMIN] | > 100 | > 100 | > 100 | > 100 | > 100 | > 100 | > 100 | > 100 | 28.8 | > 100 | > 100 | > 100 | > 100 | > 100 | > 100 | > 100 | > 100 | > 100 | > 100 | 4270 | GI50 (ACHN): > 100 µM; GI50 (OVCAR-3): > 100 µM; GI50 (KM12): > 100 µM; GI50 (SF-539): > 100 µM; GI50 (SNB-78): > 100 µM; GI50 (NCI-H226): > 100 µM; GI50 (DU-145): > 100 µM; GI50 (SK-OV-3): > 100 µM; GI50 (DMS-273): > 100 µM; GI50 (NCI-H460): > 100 µM; GI50 (SF-295): 39.8 µM; GI50 (A549): > 100 µM; GI50 (St-4): > 100 µM; GI50 [6]: > 100 µM |
